Key:
NET = target: T1, NET (Rattus norvegicus, UniProt Q63380); test: In vitro determination of NET reuptake inhibition ([3H]Nixosetine binding, rat brain cortex membranes)
T1 construct: Cortex from rat brain was collected and homogenised; from tissue; host or cells: rat brain cortex homogenate/membranes
Protocol: In vitro Determination of NET Reuptake Inhibition
Cortex from rat brain was collected and homogenised using an Ultra-Turrax T25 and a Dual homogeniser in ice-cold homogenising buffer containing Tris, NaCl and KCl (50 mM, 120 mM and 5 mM, respectively, pH 7.4) prior to dilution to an appropriate protein concentration optimised for specific and non-specific binding. […] Membrane-bound activity was detected by filtration through a Packard Filtermate harvester onto GF/B Unifilterplates, washed with ice-cold Tris-HCl buffer, containing NaCl and KCl (50 mM, 120 mM and 4 mM; pH 7.4; 6×0.5 ml). Filters were allowed to dry for 24 h before adding scintillation fluid. Scintillation fluid was allowed to saturate filters for 24 h before counting in a Topcount scintillation counter. Percentage specific bound and competition binding curves were calculated using S-Plus software (Insightful).

T1 sequence (Q63380 1-617): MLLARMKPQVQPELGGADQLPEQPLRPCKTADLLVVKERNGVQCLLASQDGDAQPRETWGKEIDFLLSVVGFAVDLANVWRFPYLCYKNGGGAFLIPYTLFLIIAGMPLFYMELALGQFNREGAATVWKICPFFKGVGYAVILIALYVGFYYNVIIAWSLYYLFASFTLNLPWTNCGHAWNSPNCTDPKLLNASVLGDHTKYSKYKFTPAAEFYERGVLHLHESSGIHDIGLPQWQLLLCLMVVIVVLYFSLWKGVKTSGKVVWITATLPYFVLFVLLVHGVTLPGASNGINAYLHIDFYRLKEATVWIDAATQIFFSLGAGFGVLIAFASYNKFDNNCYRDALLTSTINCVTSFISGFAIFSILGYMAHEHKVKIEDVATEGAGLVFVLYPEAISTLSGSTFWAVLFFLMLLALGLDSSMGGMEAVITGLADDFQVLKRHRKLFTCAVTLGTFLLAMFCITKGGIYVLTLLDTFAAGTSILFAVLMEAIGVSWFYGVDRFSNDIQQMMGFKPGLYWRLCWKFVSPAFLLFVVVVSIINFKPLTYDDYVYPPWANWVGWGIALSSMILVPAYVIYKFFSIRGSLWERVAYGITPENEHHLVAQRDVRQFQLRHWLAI

SMILES	IC50 (NET)	other results
CN(C)CC1CO[C@@H]2c3cc(F)ccc3Cc3ccccc3[C@@H]12 (mixture of isomers) [compound 47, [(3aR,12bS)-11-fluoro-3,3a,8,12b-tetrahydro-2H-dibenzo[3,4:6,7]cyclohepta[1,2-b]furan-3-yl]-N,N-dimethylmethanamine]	11 nM	
CN(C)CC1CO[C@H]2c3cc(F)ccc3Cc3ccccc3[C@@H]12 (mixture of isomers) [compound 48, [(3aR,12bR)-11-fluoro-3,3a,8,12b-tetrahydro-2H-dibenzo[3,4:6,7]cyclohepta[1,2-b]furan-3-yl]-N,N-dimethylmethanamine]	224 nM	
CC(=O)N1[C@@H](CN(C)C)C[C@@H]2c3ccccc3Cc3ccc(F)cc3[C@H]21 [36b, [(2R,3aR,12bS)-1-acetyl-11-fluoro-1,2,3,3a,8,12b-hexahydrodibenzo[3,4:6,7]-cyclohepta[1,2-b]pyrrol-2-yl]-N,N-dimethylmethanamine]	3890 nM	
CN(C)C[C@H]1C[C@@H]2c3ccccc3Cc3ccc(F)cc3[C@H]2N1 [37a, [(2R,3aR,12bS)-11-fluoro-1,2,3,3a,8,12b-hexahydrodibenzo[3,4:6,7]cyclohepta-[1,2-b]pyr-rol-2-yl]-N,N-dimethylmethanamine]	7.94 nM	
OCCN1CCN(C[C@H]2C[C@@H]3c4ccccc4Cc4ccc(F)cc4[C@H]3N2)CC1 [43a, 2-(4-{[(2R,3aR,12bS)-11-fluoro-1,2,3,3a,8,12b-hexahydrodibenzo[3,4:6,7]-cyclohepta[1,2-b]pyrrol-2-yl]methyl}-1-piperazinyl)ethanol]	> 10000 nM	
CN1C[C@@H]2C[C@@H]3c4ccccc4Cc4ccc(F)cc4[C@H]3N2C1 [compound 1, (4aS,13bR,14aS)-6-fluoro-2-methyl-1,2,3,4a,9,13b,14,14a-octahydrodibenzo-[3′,4′:6′,7′]cyclohepta[1′,2′:4,5]pyrrolo[1,2-c]imidazole]	115 nM	
Fc1ccc2c(c1)[C@@H]1[C@H](C[C@H]3CNC(=S)N31)c1ccccc1C2 [compound 3, (4aS,13bR,14aS)-6-fluoro-1,4a,9,13b,14,14a-hexahydrodibenzo[3′,4′:6′,7′]cycloheta[1′,2′:4,5]pyrrolo[1,2-c]imidazole-3(2H)-thione]		NET Reuptake Inhibition (NET): 5.24
CN1CC(=O)N2[C@@H](C[C@@H]3c4ccccc4Cc4ccc(F)cc4[C@H]32)C1 [compound 4, (5aS,14bR,15aS)-7-fluoro-2-methyl-1,2,3,5a,10,14b,15,15a-octahydro-4H-dibenzo[3′,4′:6′,7′]cyclohepta[1′,2′:4,5]pyrrolo[1,2-a]pyrazin-4-one]		NET Reuptake Inhibition (NET): <5
CN(C)C[C@H]1C[C@@H]2c3ccccc3Cc3ccc(F)cc3[C@H]2N1C [compound 5, [(2R,3aR,12bS)-11-fluoro-1-methyl-1,2,3,3a,8,12b-hexahydrodibenzo[3,4:6,7]-cyclohepta[1,2-b]pyrrol-2-yl]-N,N-dimethylmethanamine]	288 nM	
CN1C[C@H]2C[C@@H]3c4ccccc4Cc4ccc(F)cc4[C@H]3N2C1=O [compound 7, (4aS,13bR,14aR)-6-fluoro-2-methyl-1,4a,9,13b,14,14a-hexahydrodibenzo-[3′,4′:6′,7′]cyclohepta[1′,2′:4,5]pyrrolo[1,2-c]imidazol-3(2H)-one]	891 nM	
Fc1ccc2c(c1)[C@@H]1[C@H](C[C@@H]3CNC(=S)N31)c1ccccc1C2 [compound 8, (4aS,13bR,14aR)-6-fluoro-1,4a,9,13b,14,14a-hexahydrodibenzo[3′,4′:6′,7′]-cyclohepta[1′,2′:4,5]pyrrolo[1,2-c]imidazole-3(2H)-thione]		NET Reuptake Inhibition (NET): 5.66; melting point: 150 to 151 °C
CSC1=NC[C@H]2C[C@@H]3c4ccccc4Cc4ccc(F)cc4[C@H]3N12 [compound 9, (4aS,13bR,14aR)-6-fluoro-3-(methylsulfanyl)-1,4a,9,13b,14,14a-hexahydrodibenzo[3′,4′:6′,7′]cyclohepta[1′,2′:4,5]pyrrolo[1,2-c]imidazole]	3980 nM	
COCC(=O)N1[C@@H](CN(C)C)C[C@@H]2c3ccccc3Cc3ccc(F)cc3[C@H]21 [compound 10, [(2R,3aR,12bS)-11-fluoro-1-(methoxyacetyl)-1,2,3,3a,8,12b-hexahydrodibenzo-[3,4:6,7]cyclohepta[1,2-b]pyrrol-2-yl]-N,N-dimethylmethanamine]	4790 nM	
O=C1CNC[C@H]2C[C@@H]3c4ccccc4Cc4ccc(F)cc4[C@H]3N12 [compound 12, (5aS,14bR,15aR)-7-fluoro-1,2,3,5a,10,14b,15,15a-octahydro-4H-dibenzo[3′,4′:6′,7′]cyclohepta[1′,2′:4,5]pyrrolo[1,2-a]pyrazin-4-one]	3470 nM	
O=C1NC[C@@H]2C[C@@H]3c4ccccc4Cc4ccc(F)cc4[C@H]3N12 [compound 15, (4aS,13bR,14aS)-6-fluoro-1,4a,9,13b,14,14a-hexahydrodibenzo[3′,4′:6′,7′]-cyclohepta[1′,2′:4,5]pyrrolo[1,2-c]imidazol-3(2H)-one]	2400 nM	
CN1C[C@@H]2C[C@@H]3c4ccccc4Cc4ccc(F)cc4[C@H]3N2C1=O [compound 16, (4aS,13bR,14aS)-6-fluoro-2-methyl-1,4a,9,13b,14,14a-hexahydrodibenzo-[3′,4′:6′,7′]cyclohepta[1′,2′:4,5]pyrrolo[1,2-c]imidazol-3(2H)-one]	> 10000 nM	
CN(C)C[C@H]1C[C@@H]2c3ccccc3Oc3ccc(F)cc3[C@H]2N1 [compound 17, [(2R,3aR,12bS)-11-fluoro-2,3,3a,12b-tetrahydro-1H-dibenzo[2,3:6,7]oxepino[4,5-b]pyrrol-2-yl]-N,N-dimethylmethanamine]	7.41 nM	
OCCN1CCN(C[C@H]2C[C@@H]3c4ccccc4Oc4ccc(F)cc4[C@H]3N2)CC1 [compound 19, 2-(4-{[(2R,3aR,12bS)-11-fluoro-2,3,3a,12b-tetrahydro-1H-dibenzo[2,3:6,7]-oxepino[4,5-b]pyrrol-2-yl]methyl}-1-piperazinyl)ethanol]	> 10000 nM	
OC1CCN(C[C@H]2C[C@@H]3c4ccccc4Oc4ccc(F)cc4[C@H]3N2)C1 (stereo partly drawn) [compound 20, 1-{[(2R,3aR,12bS)-11-fluoro-2,3,3a,12b-tetrahydro-1H-dibenzo[2,3:6,7]oxepino-[4,5-b]pyrrol-2-yl]methyl}-3-pyrrolidinol]	417 nM	
CN(C)C[C@@H]1C[C@@H]2c3ccccc3Cc3ccc(F)cc3[C@H]2S1(=O)=O [compound 22, [(2S,3aR,12bS)-11-fluoro-1,1-dioxido-3,3a,8,12b-tetrahydro-2H-dibenzo[3,4:6,7]-cyclohepta[1,2-b]thien-2-yl]-N,N-dimethylmethanamine]	4790 nM	
CN(C)C[C@H]1C[C@@H]2c3ccccc3Cc3ccc(F)cc3[C@H]2S1 [compound 23, [(2R,3aR,12bS)-11-fluoro-3,3a,8,12b-tetrahydro-2H-dibenzo[3,4:6,7]cyclohepta-[1,2-b]thien-2-yl]-N,N-dimethylmethanamine]	28.2 nM	
CN(C)C[C@@H]1C[C@@H]2c3ccccc3Cc3ccc(F)cc3[C@H]2[S@@+]1[O-] [compound 26, [(2S,3aR,12bS)-11-fluoro-1-oxido-3,3a,8,12b-tetrahydro-2H-dibenzo[3,4:6,7]-cyclohepta[1,2-b]thien-2-yl]-N,N-dimethylmethanamine]	> 10000 nM	
O=C1CO[C@H]2c3cc(F)ccc3Cc3ccccc3[C@H]2C1 [compound 31, (4aR,13bR)-12-fluoro-4,4a,9,13b-tetrahydrodibenzo[3,4:6,7]cyclohepta[1,2-b]-pyran-3(2H)-one]		melting point: 146 to 148 °C
CN(C)[C@@H]1CO[C@H]2c3cc(F)ccc3Cc3ccccc3[C@H]2C1 [compound 32, (3S,4aR,13bR)-12-fluoro-N,N-dimethyl-2,3,4,4a,9,13b-hexahydrodibenzo[3,4:6,7]-cyclohepta[1,2-b]pyran-3-amine]	19.5 nM	
CNC[C@H]1C[C@@H]2c3ccccc3Cc3ccc(F)cc3[C@H]2N1C=O [compound 38, (2R,3aR,12bS)-11-fluoro-2-[(methylamino)methyll]-3,3a,8,12b-tetrahydrodibenzo-[3,4: 6,7]-cyclohepta[1,2-b]pyrrole-1(2H)-carbaldehyde]	490 nM	
CN(C)C[C@H]1C[C@@H]2c3ccccc3Cc3ccc(F)cc3[C@H]2N1CCO [compound 39, 2-((2R,3aR,12bS)-2-[(dimethylamino)methyl]-11-fluoro-3,3a,8,12b-tetrahydrodibenzo[3,4:6,7]cyclohepta[1,2-b]pyrrol-1(2H)-yl)ethanol]	126 nM	
COCCN1[C@@H](CN(C)C)C[C@@H]2c3ccccc3Cc3ccc(F)cc3[C@H]21 [compound 40, [(2R,3aR,12bS)-11-Fluoro-1-(2-methoxyethyl)-1,2,3,3a,8,12b-hexahydrodibenzo-[3,4:6,7]-cyclohepta[1,2-b]pyrrol-2-yl]-N,N-dimethylmethanamine]	479 nM	
Fc1ccc2c(c1)[C@H]1N[C@@H](CN3CCOCC3)C[C@@H]1c1ccccc1C2 [compound 42, (2R,3aR,12bS)-11-fluoro-2-(4-morpholinylmethyl)-1,2,3,3a,8,12b-hexahydrodibenzo[3,4:6,7]cyclohepta[1,2-b]pyrrole]	5500 nM	
COC(=O)N1[C@@H](CN(C)C)CC[C@@H]2c3ccccc3Cc3ccc(F)cc3[C@H]21 [compound 45, Methyl(2R,4aR,13bS)-2-[(dimethylamino)methyl]-12-fluoro-2,3,4,4a,9,13b-hexahydro-1H-dibenzo[3,4:6,7]cyclohepta[1,2-b]pyridine-1-carboxylate]	794 nM	
CNC[C@H]1CC[C@@H]2c3ccccc3Cc3ccc(F)cc3[C@H]2O1 [compound 46, [(2R,4aR,13bS)-12-fluoro-2,3,4,4a,9,13b-hexahydrodibenzo[3,4:6,7]cyclohepta-[1,2-b]pyran-2-yl]-N-methylmethanamine]	398 nM	
